Data as given in patent publication US20230391753A1, “THIOBENZIMIDAZOLE DERIVATIVE OR PHARMACEUTICALLY ACCEPTABLE SALT THEREOF AND USE THEREOF” (KOREA UNIVERSITY RESEARCH AND BUSINESS FOUNDATION, priority 2020, published 2023).

Columns and labels:
[1] = system: HER2-positive breast cancer cell line JIMT-1; test: MTS cell viability assay, JIMT-1; assay type: cell-based, human; conditions: 72 hours
Experimental: A human triple-negative breast cancer (TNBC) cell line MDA-MB-231 (Cell seeding numbers: 1(M231)×10^4 cells/wells (confluency ≥25%) and an HER2-positive breast cancer (HER2+BC) cell line JIMT-1 (Cell seeding numbers: 1.2 (JIMT)×10^4 cells/wells (confluency ≥25%) were used in the experiment.
The cell lines were cultured in a Dulbecco's modified Eagle's medium (DMEM) containing 10% fetal bovine serum (FBS), streptomycin-penicillin (100 U/mL) and Fungizone (0.625 μg/mL) in an environment of 5% CO2 and 37° C., respectively.
In the human breast cancer cell lines MDA-MB-231 and JIMT-1, thiobenzimidazole derivatives of Chemical Formulas 1-1, 1-2, 1-3, 1-5, 1-6, 1-7, 1-8, 1-1-11, 1-12, 1-13, 1-14, 1-15, 1-16, 1-17, 1-19, 1-20, 1-21, and 1-22 were treated at various concentrations of 0, 0.5, 1, and 5 μM for 72 hours, respectively, and then cell viability was measured by an MTS assay. In the MTS assay, the cells were attached to a 96 well plate for 24 hours, treated with the thiobenzimidazole derivatives for 72 hours, and then developed with MTS (3-(4,5-dimethylthiazol-2-yl)-5-(3-carboxymethoxyphenyl)-2-(4-sulfophenyl)-2H-tetrazolium) for 4 hours, and then absorbance was measured at 490 nm using a Spectramax Plus384 microplate analyzer. […]

[2] = system: HER2-positive breast cancer cell line BT474; test: MTS cell viability assay, BT474; assay type: cell-based; conditions: 72 hours
Experimental: In the human breast cancer cell lines MDA-MB-231 and JIMT-1, thiobenzimidazole derivatives of Chemical Formulas 1-1, 1-2, 1-3, 1-5, 1-6, 1-7, 1-8, 1-1-11, 1-12, 1-13, 1-14, 1-15, 1-16, 1-17, 1-19, 1-20, 1-21, and 1-22 were treated at various concentrations of 0, 0.5, 1, and 5 μM for 72 hours, respectively, and then cell viability was measured by an MTS assay. In the MTS assay, the cells were attached to a 96 well plate for 24 hours, treated with the thiobenzimidazole derivatives for 72 hours, and then developed with MTS (3-(4,5-dimethylthiazol-2-yl)-5-(3-carboxymethoxyphenyl)-2-(4-sulfophenyl)-2H-tetrazolium) for 4 hours, and then absorbance was measured at 490 nm using a Spectramax Plus384 microplate analyzer. […] The HER2-positive breast cancer cell line BT474 sensitive to Trastuzumab and the HER2-positive breast cancer cell line JIMT-1 resistant to Trastuzumab were treated with the thiobenzimidazole derivative of Chemical Formula 1-3 prepared above and its hydrochloride (Compound 1-23) at the same concentrations of […], 0.1, 0.5, 1, 5, and 10 μM for 72 hours, and then cell viability and IC50 were measured by an MTS assay.

[3] = system: HER2-positive breast cancer cell line SKBR3; test: Cell viability assay, SKBR3; assay type: cell-based; conditions: SKBR3 (sensitive to Trastuzumab); 72 hours
SKBR3 cell line = test: DNA content analysis by flow cytometry (PI), SKBR3; assay type: cell-based; conditions: 0.1, 0.25 and 0.5 μM for 72 hours
Experimental: (§1) The degree of apoptosis of cancer cells induced by the thiobenzimidazole derivative of Chemical Formula 1-3 was measured through DNA content analysis using a flow cytometry. The SKBR3, BT474 and JIMT-1 cell lines were treated with a control (DMSO) and the derivative of Chemical Formula 1-3 at concentrations of 0.1, 0.25 and 0.5 μM for 72 hours, and then the cells were harvested, immobilized with 95% ethanol containing 0.5% Tween-20 for 24 hours, and then stained with propidium iodide (PI, 50 μg/mL) and RNase (50 μg/mL) for 30 minutes. Thereafter, the degree of apoptosis of cancer cells was analyzed using a flow cytometer.
(§2) The result of such apoptosis was shown on the cell cycle as a Sub G1 site, and the ratio of Sub G1 was expressed numerically and shown in FIG. 8.

BT474 cell line = test: DNA content analysis by flow cytometry (PI), BT474; assay type: cell-based; conditions: 0.1, 0.25 and 0.5 μM for 72 hours
Experimental: as §1, §2

JIMT-1 cell line = test: DNA content analysis by flow cytometry (PI), JIMT-1; assay type: cell-based, human; conditions: 0.1, 0.25 and 0.5 μM for 72 hours
Experimental: as §1, §2

cancer cells = test: Annexin V/PI staining; assay type: cell-based; conditions: 0.1, 0.25, and 0.5 μM for 72 hours
Experimental: In addition, in order to confirm the apoptosis-inducing effect of the derivative of Chemical Formula 1-3, the control (DMSO) and the derivative of Chemical Formula 1-3 were treated at concentrations of 0.1, 0.25, and 0.5 μM for 72 hours, and then the degree of apoptosis was confirmed by Annexin V/PI staining.

Row | melting point [°C] | IC50 ([1]; Homo sapiens, JIMT-1, MTS) [µM] | IC50 ([2]; Homo sapiens, BT-474, BT474, MTS) [µM] | SMILES | inhibitory effect on cell proliferation ([1]; JIMT-1 (resistant to Trastuzumab)) | inhibitory effect on cell proliferation ([2]; BT474 (sensitive to Trastuzumab)) | inhibitory effect on cell proliferation [3] | G2/M phase cell cycle arrest (SKBR3 cell line) | apoptosis (Sub-G1 population) (SKBR3 cell line) | G2/M phase cell cycle arrest (BT474 cell line) | apoptosis (Sub-G1 population) (BT474 cell line) | G2/M phase cell cycle arrest (JIMT-1 cell line) | apoptosis (Sub-G1 population) (JIMT-1 cell line) | early and late apoptosis (Annexin V/PI) (cancer cells)
1 | 232 to 233 |  |  | COC(=O)Nc1nc2cc(Sc3ccc(F)cc3)ccc2[nH]1 [Chemical Formula 1-1, methyl 5-(4-fluorophenyl-thio)-1H-benzo[d]imidazol-2-ylcarbamate] |  |  |  |  |  |  |  |  |  | 
2 |  | 0.448 | 2.18 | COC(=O)Nc1nc2cc(Sc3ccc(N4CCN(C)CC4)cc3)ccc2[nH]1 [Chemical Formula 1-3, methyl (5-((4-(4-methylpiperazin-1-yl)phenyl)thio)-1H-benzo[d]imidazol-2-yl) carbamate] | inhibitory effect on cell proliferation was exhibited | inhibitory effect on cell proliferation was exhibited | inhibitory effect on cell proliferation was exhibited | arrested the G2/M phase cell cycle | significantly induced apoptosis (Sub-G1 population) | arrested the G2/M phase cell cycle | significantly induced apoptosis (Sub-G1 population) | arrested the G2/M phase cell cycle | significantly induced apoptosis (Sub-G1 population) | early and late apoptosis were effectively induced in a concentration-dependent manner
